Where a name gives a salt, the structure may show the parent alone. Read-outs that look alike come from different tables or passages of the source.
Columns and labels:
[1] = background statement; cited from earlier work
bovine thrombin [2] = target: T1, bovine thrombin (Bos taurus, UniProt P00735); test: Antithrombin activity: inhibition of fibrin formation (fibrinogen); type: biochemical; conditions: Table 2; bovine fibrinogen, pH 7.4, 37° C.; read-out: Thrombin Fibrinogen I50 (concentration doubling coagulation time)
T1 construct: a 0.2 unit/ml bovine thrombin solution
Protocol: (i) Determination of inhibition activity against fibrin formation
An inhibitor sample is dissolved in a 0.18 M borate-physiological salt buffer solution (pH= 7.4) to make the total volume to 500 μl. […] Thus, a coagulation time is determined. The inhibitor concentration I50 (μmol), at which the coagulation time obtained in the absence of the inhibitor is extended twice, is determined.

human urokinase = human urokinase (Homo sapiens, UniProt P00749); test: biochemical
Protocol: Determination of inhibition activity for S-2444 decomposition
(§1) An inhibitor sample is dissolved in a 0.05 M Tris-hydrochloric acid buffer solution (pH=8.8) to make the total volume to 400 μl. To this solution, 50 μl of a 1 mM S-2444 solution is added and the mixture is incubated at a temperature of 37° C. for 5 minutes in a constant temperature bath. Then, 50 μl of a 500 unit/ml human urokinase is added and the mixture is incubated at a temperature of 37° C. for 5 minutes. Thereafter, 50 μl of 50% acetic acid is added to terminate the reaction. The absorbance of the p-nitroaniline formed in the reaction mixture is measured at 405 nm. Thus, the concentration I50 (μmol) of the inhibitor sample, at which the absorbance is one half (i.e., 1/2) of that obtained in the absence of the inhibitor sample, is determined.

human plasmin [3] = target: T2, human plasmin (Homo sapiens, UniProt P00747); test: Antiplasmin activity: inhibition of S-2251 decomposition; type: biochemical; conditions: Table 2; substrate S-2251, pH 7.4, 37° C.
T2 sequence (P00747 581-810 limits assumed): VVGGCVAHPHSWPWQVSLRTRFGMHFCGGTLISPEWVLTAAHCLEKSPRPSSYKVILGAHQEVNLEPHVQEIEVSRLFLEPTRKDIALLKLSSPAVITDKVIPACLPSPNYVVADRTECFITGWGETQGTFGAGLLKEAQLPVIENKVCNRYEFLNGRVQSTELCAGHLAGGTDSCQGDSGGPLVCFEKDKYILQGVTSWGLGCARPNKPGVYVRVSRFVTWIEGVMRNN
T2 sequence (P00747 97-580 limits assumed): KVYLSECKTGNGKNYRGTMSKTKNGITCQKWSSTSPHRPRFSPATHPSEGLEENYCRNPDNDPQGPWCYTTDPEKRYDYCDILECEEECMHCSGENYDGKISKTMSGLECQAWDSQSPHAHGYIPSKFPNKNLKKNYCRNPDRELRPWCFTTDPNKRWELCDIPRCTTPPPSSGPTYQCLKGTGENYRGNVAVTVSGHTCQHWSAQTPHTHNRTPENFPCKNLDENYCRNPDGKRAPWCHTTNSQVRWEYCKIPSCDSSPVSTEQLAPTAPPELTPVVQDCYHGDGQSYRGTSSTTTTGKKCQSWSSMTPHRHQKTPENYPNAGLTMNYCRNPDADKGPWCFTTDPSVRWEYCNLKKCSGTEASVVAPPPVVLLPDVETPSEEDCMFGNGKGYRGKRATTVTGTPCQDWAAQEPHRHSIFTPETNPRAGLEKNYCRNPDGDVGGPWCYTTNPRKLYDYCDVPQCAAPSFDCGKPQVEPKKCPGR
Protocol: An inhibitor sample is dissolved in a 0.05 M Tris-hydrochloric acid buffer solution (pH=7.4) to make the total volume to 400 μl. […] Then, 50 μl of a 0.2 casein unit/ml human plasmin is added and the mixture is incubated at a temperature of 37° C. for 4 minutes. Thereafter, the reaction is stopped by adding 50 μl of 50% acetic acid.
Thus, the concentration I50 (μmol) of the inhibitor sample, at which the absorbance is one half (i.e., 1/2) of that obtained in the absence of the inhibitor, is determined.

bovine trypsin = target: T3, bovine trypsin (Bos taurus, UniProt P00760); test: Antitrypsin activity: inhibition of S-2238 decomposition; type: biochemical
T3 sequence (P00760 24-246): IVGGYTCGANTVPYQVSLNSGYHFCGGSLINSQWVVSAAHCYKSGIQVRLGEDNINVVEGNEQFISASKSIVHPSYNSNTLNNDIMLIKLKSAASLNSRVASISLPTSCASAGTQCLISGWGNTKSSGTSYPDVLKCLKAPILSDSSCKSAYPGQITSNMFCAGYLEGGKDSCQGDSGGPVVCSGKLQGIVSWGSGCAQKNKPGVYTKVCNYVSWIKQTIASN
Protocol: Determination of inhibition activity against S-2238 decomposition
An inhibitor sample is dissolved in a 0.05 M Tris-imidazole buffer solution (pH=8.1) and 125 μl of a 1 mM S-2238 solution is added to make the total volume to 1.20 ml. The mixture is incubated at a temperature of 37° C. for 5 minutes in a constant temperature bath. To this mixture, 0.05 ml of bovine trypsin is added and the absorbance, at 405 nm, of the p-nitroaniline formed per minute is determined at a temperature of 37° C. by using the so-called initial velocity method. Thus, the concentration I50 (μmol) of a inhibitor sample, at which the absorbance is one half (i.e., 1/2) of that obtained in the absence of the inhibitor sample, is determined.

bovine thrombin [4] = target: T1, bovine thrombin; test: Antithrombin activity: inhibition of S-2238 decomposition; type: biochemical; conditions: Table 2; substrate S-2238, pH 8.3, 37° C.; read-out: Thrombin S-2238 I50
Protocol: An inhibitor sample is dissolved in a 0.05 M Tris-hydrochloric acid buffer solution (pH=8.3) to make a total volume of 400 μl. […] Thus, the concentration I50 (μmol) of the inhibitor sample at which the absorbance is one half (i.e., 1/2) of that obtained in the absence of the inhibitor sample, is determined.

human plasma kallikrein = human plasma kallikrein (Homo sapiens, UniProt P03952); test: Anti-plasma kallikrein activity: inhibition of S-2302 decomposition; type: biochemical
human plasma kallikrein, sequence (P03952 391-638 limits assumed): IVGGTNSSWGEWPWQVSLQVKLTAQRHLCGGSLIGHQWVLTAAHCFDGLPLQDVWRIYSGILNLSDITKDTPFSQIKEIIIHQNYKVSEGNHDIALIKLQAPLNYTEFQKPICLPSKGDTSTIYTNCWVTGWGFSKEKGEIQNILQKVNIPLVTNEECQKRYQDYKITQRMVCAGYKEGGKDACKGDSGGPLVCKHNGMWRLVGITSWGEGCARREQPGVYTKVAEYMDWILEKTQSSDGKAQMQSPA
human plasma kallikrein, sequence (P03952 20-390 limits assumed): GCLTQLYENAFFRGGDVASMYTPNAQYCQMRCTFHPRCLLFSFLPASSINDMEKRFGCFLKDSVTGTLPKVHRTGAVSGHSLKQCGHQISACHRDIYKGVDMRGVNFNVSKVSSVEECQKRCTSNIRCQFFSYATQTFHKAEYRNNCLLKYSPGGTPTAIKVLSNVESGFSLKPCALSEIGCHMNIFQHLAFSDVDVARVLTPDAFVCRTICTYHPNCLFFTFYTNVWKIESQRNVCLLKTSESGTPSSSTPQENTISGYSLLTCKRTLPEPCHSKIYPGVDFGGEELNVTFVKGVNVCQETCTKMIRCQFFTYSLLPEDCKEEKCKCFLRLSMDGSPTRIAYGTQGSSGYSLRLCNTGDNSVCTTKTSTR
Protocol: Determination of inhibition activity for S-2302 decomposition
as §1, with “solution (pH=7.8)” for “solution (pH=8.8)”, “a 2” for “a 1”, “mM S-2302” for “mM S-2444”, “a 0.12” for “a 500”, “human plasma kallikrein” for “human urokinase”

human plasmin [5] = target: T2, human plasmin; test: Antiplasmin activity: inhibition of fibrin decomposition; type: biochemical; conditions: Table 2, pH 7.4, 37° C., read-out: Plasmin Fibrin I50 (concentration doubling fibrin dissolution time)
Protocol: (i) Determination of inhibition activity for fibrin decomposition
An inhibitor sample is dissolved in a 0.18 M borate-physiological salt buffer solution (pH=7.4) to make the total volume to 600 μl. To this buffer solution, 200 μl of a 0.2% bovine fibrinogen, 100 μl of a 0.3 casein unit/ml human plasmin solution, and 100 μl of a 50 unit/ml bovine thrombin solution, all dissolved in the above-mentioned buffer, are added at a temperature of 37° C. in a constant temperature bath. Then, the dissolution time of the fibrin mass formed above is determined.

[6] = background statement; cited from earlier work; remark: listed apart in the source
[7] = background statement; cited from earlier work; remark: listed apart in the source
[8] = background statement; cited from earlier work; remark: listed apart in the source
[9] = Table 2, substrate S-2444, pH 8.8, 37° C., read-out: Urokinase S-2444 I50
[10] = Table 2, substrate S-2238, pH 8.1, 37° C., read-out: Trypsin S-2238 I50
[11] = Table 2, substrate S-2302, pH 7.8, 37° C., read-out: Plasma Kallikrein S-2302 I50

Row | Compound | side effects when administered to humans [1] | IC50 (bovine thrombin [2]) [µM] | IC50 (human urokinase; [9]) [µM] | IC50 (human plasmin [3]) [µM] | IC50 (bovine trypsin; [10]) [µM] | IC50 (bovine thrombin [4]) [µM] | IC50 (human plasma kallikrein; [11]) [µM] | IC50 (human plasmin [5]) [µM] | LD50 value [6] | IC50 (human urokinase) [µM] | hypotensive action [7] | IC50 (bovine trypsin) [µM] | half life in vivo [8] | IC50 (human plasma kallikrein) [µM]
1 | Aprotinin | side effects such as allergic reactions | – | – | – | – | – | – | – | – | – | – | – | – | –
2 | CC(=O)c1ccc(NC(=O)C(Cc2cccc(Oc3ccccc3)c2)NC(=O)[C@H]2CC[C@H](CN)CC2)cc1 (mixture of isomers) [Compound 2, N-(trans-4-aminomethylcyclohexylcarbonyl)-3-phenoxy-DL-phenylalanine 4-acetylanilide hydrochloride] | – | > 100 | 110 | 19 | 2.3 | > 100 | 0.38 | 14 | – | – | – | – | – | –
3 | NC[C@H]1CC[C@H](C(=O)NC(Cc2cccc(Oc3ccccc3)c2)C(=O)Nc2ccncc2)CC1 (mixture of isomers) [Compound 8, N-(trans-4-aminomethylcyclohexylcarbonyl)-3-phenoxy-DL-phenylalanine 4-pyridylamide dihydrochloride] | – | > 400 | 87 | 65 | 8.8 | > 100 | 0.83 | 24 | – | – | – | – | – | –
4 | N=C(N)c1ccc2cc(OC(=O)c3ccc(N=C(N)N)cc3)ccc2c1 [FUT-175, reference compound] | – | – | – | – | – | – | – | – | small | 0.013 | large | 0.27 | short | 0.076
